Laboratory results published in BigSolDB 2.1.

CO[C@H]1/C=C/O[C@@]2(C)Oc3c(C)c(O)c4c(O)c(c(/C=N/N5CCN(C)CC5)c(O)c4c3C2=O)NC(=O)/C(C)=C\C=C\[C@H](C)[C@H](O)[C@@H](C)[C@@H](O)[C@@H](C)[C@H](OC(C)=O)[C@@H]1C
solubility (mole fraction)
Conditions | in ethanol | in ethyl acetate | in eugenol | in isopropanol | in isopropyl myristate | in limonene | in sec-butanol | in transcutol | in triacetin
298.2 K | 0.00011 | 0.00054 | 0.00028 | 0.00073 | 0.0031 | 0.0023 | 0.00048 | 0.00097 | 0.00049
303.2 K | 0.00016 | 0.00074 | 0.00031 | 0.00089 | 0.0038 | 0.0036 | 0.00051 | 0.0013 | 0.00052
308.2 K | 0.00023 | 0.00088 | 0.00039 | – | 0.0043 | 0.0052 | 0.00059 | 0.0025 | 0.00072
313.2 K | 0.00036 | 0.0091 | 0.00043 | 0.0016 | 0.0047 | 0.0085 | 0.00076 | 0.0049 | 0.00073
318.2 K | 0.00053 | 0.013 | 0.00059 | 0.0017 | – | – | – | 0.018 | 0.00088

Conditions | solubility (mole fraction)
in span 80, 298.2 K | 0.00058
in span 80, 303.2 K | 0.00064
in span 80, 308.2 K | 0.00079
in span 80, 313.2 K | 0.00085
in span 80, 318.2 K | 0.00099
